{"source": "patent US6787517B1", "about": "(priority 2000, dated 2004)", "system": "digitonin-permeabilized bovine adrenochromaffin cells", "format": "cell-based"}
{"substance": "botulinum toxin type A", "values": [{"measurement": "inhibition of Ca2+-stimulated catecholamine release", "result": "inhibition"}]}
